Measurements from patent US4287206A, “Halogen derivatives of 8-hydroxycarboxylic acids; the processes for their preparation and medicaments in which they are present” (priority 1978, dated 1981).
Where a name gives a salt, the structure may show the parent alone. Read-outs that look alike come from different tables or passages of the source.

Tests used:
[1] = tested on: mice; test: Motor activity in mice (activity meters with photoelectric cells); type: in vivo; settings: comparison of isomers; 32 mg/kg orally; in particular stimulant action
Method: The motor activity was determined with the aid of activity meters having photoelectric cells (Boissier and Simon, Arch. int. Pharmacodyn. 1965, 158, 212-221). A minimum of 10 animals was always used per batch.
The mice are placed in the activity meter just after the oral or intraperitoneal administration of the product acccording to the invention, obtained in accordance with Example I. The motor activity is measured as from the introduction into the activity meter up to the 60th minute. The counters are read after 30 minutes, then reset to 0 and read every 10 minutes for 30 minutes.

[2] = tested on: rats; test: Influence of alpha-methyltyrosine on the stereotypies caused in rats; type: in vivo; settings: alpha-methyltyrosine 64 mg.kg^-1 i.p. 150 min before Example III 8 mg.kg^-1 i.p.
Method: (§1) The tests were carried out on batches of 6 rats for each dose; immediately after the oral or intraperitoneal administration, the animals are placed in individual, transparent plastic 20×10×10 cm boxes provided with a pierced stainless steel lid. The stereotyped movements are rated from 0 to 3, in accordance with the method described by Simon and Chermat (J. Pharmacol. (Paris), 1972, 3, 235-238) every 10 minutes until they disappear in all the animals. The detailed curves are plotted and the surface area of the curve is calculated as described in the above reference.
(b) Influence of alpha-methyltyrosine
At time 0, the animals receive, by intraperitoneal administration, either distilled water or alphamethyltyrosine at a dose of 64 mg.kg^-1; after 150 minutes, they receive, by intraperitoneal administration, the medicament according to the invention, obtained in accordance with Example III, at a dose of 8 mg.kg^-1.
The animals are observed under the conditions described above in the study of the stereotypies in rats.

[3] = tested on: rats; test: Influence of pimozide on the stereotypies caused in rats; type: in vivo; settings: pimozide 1 mg.kg^-1 i.p. 30 min before Example III 8 mg.kg^-1 i.p.
Method: as §1
Research into the antagonistic effects of the stereotypies caused in rats by the medicament according to the invention
(a) Influence of pimozide
At time 0, pimozide (1 mg.kg^-1) or distilled water is administered intraperitoneally; after 30 minutes, all the animals receive, by intraperitoneal administration, the medicament according to the invention, obtained in accordance with Example III (8 mg.kg^-1). The stereotypies are assessed as described above. The surface area of the curve of the stereotypies is calculated.

[4] = tested on: mice; test: Action on the toxicity of yohimbine to mice; type: in vivo; settings: yohimbine hydrochloride 25 mg.kg^-1 s.c.
Method: Action on the toxicity of yohimbine to mice
At time 0, the mice receive, by oral administration, either distilled water or the medicament according to the invention; after 30 minutes, yohimbine hydrochloride (25 mg.kg^-1) is administered subcutaneously to the mice. The mortality is followed every hour for 4 hours and then recorded after 24 hours.

[5] = Determination of the acute toxicity to mice (BEHRENS and KARBER); settings: mouse, in vivo
Method: All the experiments reported below were carried out on male rats having a weight of between 170 and 220 g (Wistar AF strain) and male mice having a weight of between 18 and 23 g (Swiss NMRI strain), unless otherwise stated in the following text.
Determination of the acute toxicity to mice
Method used: BEHRENS and KARBER

[6] = tested on: mice; test: Anti-reserpine activity in mice (reserpine hypothermia); type: in vivo; settings: Table IIb, reserpine 2.5 mg.kg^-1 i.p. 4 h before
Method: Anti-reserpine activity in mice
At time 0, the mice receive reserpine (2.5 mg.kg^-1) by intraperitoneal administration.
After 4 hours, when the hypothermia is significant (30 to 31°C.), the substance to be studied is administered intraperitoneally or orally. The rectal temperature is measured, using a probe, carrying a thermoelectric couple, inserted to a constant depth, every 30 minutes for 2 hours.

[7] = tested on: rats; test: Study of the stereotypies in rats; type: in vivo; settings: rats
Method: Study of the stereotypies in rats
as §1

[8] = tested on: mice; test: Anti-oxotremorine activity in mice (hypothermia induced by oxotremorine); type: in vivo; settings: at the doses studied, oral or intraperitoneal
Method: Anti-oxotremorine activity in mice
At time 0, the mice receive oxotremorine (0.5 mg.kg^-1) by intraperitoneal administration; after 30 minutes, either distilled water or the medicament according to the invention, obtained in accordance with Example I, is administered to the mice intraperitoneally or orally.
The mice are then observed and the trembling is rated from 0 to 3 as a function of its intensity, every 10 minutes for 30 minutes. Moreover, the existence of peripheral symptoms (tears, hypersialosis and defections) is observed for 2 hours, in the presence or absence of trembling. The rectal temperature is measured every 30 minutes for 2 hours, after administration of oxotremorine.

Q: With `CC1CC(c2ccc(Cl)cc2)C(c2ccccc2)C(=O)O1` (stereo not drawn) [100% of β, Trans-4-(4'-chlorophenyl)-6-methyl-3phenyl-3,4,5,6-tetrahydropyrone-2, IIIβ] as the compound, how does the “activity compared with the mixture of 80 % of α and 20 % of β” value [1] read?
A: more active

Q: Which “effect of pre-treatment with alpha-methyltyrosine on the stereotypies caused by the medicament” value [2] does the source give for `C[C@](N)(Cc1ccc(O)cc1)C(=O)O` [alpha-methyltyrosine, reference compound] here?
A: virtually unmodified

Q: Which “effect of pimozide on the stereotypies caused by the medicament” value [3] does the source give for `O=c1[nH]c2ccccc2n1C1CCN(CCCC(c2ccc(F)cc2)c2ccc(F)cc2)CC1` [pimozide, reference compound] here?
A: very significantly antagonizes the stereotypies

Q: For `CC(O)CC(c1ccc(Cl)cc1)C(C(=O)O)c1ccccc1` (centres unmarked) [product IV, sodium salt of 3-(4'-chlorophenyl)-5-hydroxy-2-phenylhexanoic acid], which “Mortality in % after the administration of yohimbine” value (“Mortality in %” for short) ([4]; Table Vb, 2 mg/kg administered orally, 4 hours) is on record?
A: 10%

Q: What about the “Mortality in %” value ([4]; Table Vb, 2 mg/kg administered orally, 24 hours) of the same compound?
A: 10%

Q: What about the “Mortality in %” value ([4]; Table Vb, 4 mg/kg administered orally, 4 hours) of the same compound?
A: 20%

Q: And the “Mortality in %” value ([4]; Table Vb, 4 mg/kg administered orally, 24 hours)?
A: 20%

Q: What about the “Mortality in %” value ([4]; Table Vb, 8 mg/kg administered orally, 4 hours) of the same compound?
A: 30%

Q: And the “Mortality in %” value ([4]; Table Vb, 8 mg/kg administered orally, 24 hours)?
A: 30%

Q: And the “Mortality in %” value ([4]; Table Vb, 16 mg/kg administered orally, 4 hours)?
A: 70%

Q: And the “Mortality in %” value ([4]; Table Vb, 16 mg/kg administered orally, 24 hours)?
A: 70%

Q: And the “Mortality in %” value ([4]; Table Vb, 32 mg/kg administered orally, 4 hours)?
A: 80%

Q: And the “Mortality in %” value ([4]; Table Vb, 32 mg/kg administered orally, 24 hours)?
A: 80%

Q: And the “Mortality in %” value ([4]; Table Vb, 64 mg/kg administered orally, 4 hours)?
A: 100%

Q: What about the “Mortality in %” value ([4]; Table Vb, 64 mg/kg administered orally, 24 hours) of the same compound?
A: 100%

Q: What about the “Mortality in %” value ([4]; Table Vb, 128 mg/kg administered orally, 4 hours) of the same compound?
A: 80%

Q: What about the “Mortality in %” value ([4]; Table Vb, 128 mg/kg administered orally, 24 hours) of the same compound?
A: 80%

Q: And the “Mortality in %” value ([4]; Table Vb, 256 mg/kg administered orally, 4 hours)?
A: 100%

Q: What about the “Mortality in %” value ([4]; Table Vb, 256 mg/kg administered orally, 24 hours) of the same compound?
A: 100%

Q: What about the LD50 ([5]; ip, intraperitoneal, read-out: LD50 (intraperitoneal administration)) of the same compound?
A: 160 mg/kg

Q: And the LD50 ([5]; oral, read-out: LD50 (oral administration))?
A: 310 mg/kg

Q: What about the “Rectal temperatures °C. ± SD” value ([6]; 8 mg/kg oral, 30 min) of the same compound?
A: 30.9 ± 0.36 °C

Q: What about the “Rectal temperatures °C. ± SD” value ([6]; 8 mg/kg oral, 60 min) of the same compound?
A: 32.0 ± 0.56 °C

Q: And the “Rectal temperatures °C. ± SD” value ([6]; 8 mg/kg oral, 90 min)?
A: 32.2 ± 0.57 °C

Q: And the “Rectal temperatures °C. ± SD” value ([6]; 8 mg/kg oral, 120 min)?
A: 33.2 ± 0.56 °C

Q: What about the “Rectal temperatures °C. ± SD” value ([6]; 16 mg/kg oral, 30 min) of the same compound?
A: 31.1 ± 0.39 °C

Q: And the “Rectal temperatures °C. ± SD” value ([6]; 16 mg/kg oral, 60 min)?
A: 32.5 ± 0.60 °C

Q: And the “Rectal temperatures °C. ± SD” value ([6]; 16 mg/kg oral, 90 min)?
A: 32.7 ± 0.51 °C

Q: What about the “Rectal temperatures °C. ± SD” value ([6]; 16 mg/kg oral, 120 min) of the same compound?
A: 33.1 ± 0.43 °C

Q: And the “Rectal temperatures °C. ± SD” value ([6]; 32 mg/kg oral, 30 min)?
A: 31.3 ± 0.31 °C

Q: What about the “Rectal temperatures °C. ± SD” value ([6]; 32 mg/kg oral, 60 min) of the same compound?
A: 33.0 ± 0.44 °C

Q: What about the “Rectal temperatures °C. ± SD” value ([6]; 32 mg/kg oral, 90 min) of the same compound?
A: 33.7 ± 0.41 °C

Q: What about the “Rectal temperatures °C. ± SD” value ([6]; 32 mg/kg oral, 120 min) of the same compound?
A: 33.2 ± 0.38 °C

Q: What about the “Rectal temperatures °C. ± SD” value ([6]; 64 mg/kg oral, 30 min) of the same compound?
A: 32.8 ± 0.40 °C

Q: And the “Rectal temperatures °C. ± SD” value ([6]; 64 mg/kg oral, 60 min)?
A: 34.3 ± 0.32 °C

Q: What about the “Rectal temperatures °C. ± SD” value ([6]; 64 mg/kg oral, 90 min) of the same compound?
A: 34.5 ± 0.38 °C

Q: And the “Rectal temperatures °C. ± SD” value ([6]; 64 mg/kg oral, 120 min)?
A: 34.4 ± 0.41 °C

Q: Which results are given for “Threo-2-(4'-chlorophenyl)-4-hydroxy-1-phenylpentanecarbonitrile [Example II]”?
A: stereotypy activity, oral versus intraperitoneal administration ([7]; figure): slightly greater on oral administration; dose from which very significant stereotypies are present ([7]; mean surface area of the curve (figure)): ≥ 8 mg/kg; trembling and peripheral symptoms caused by oxotremorine [8]: did not cause any modification; Mortality in % after the administration of yohimbine ([4]; Table Va, 2 mg/kg oral, 4 hours): 0%; Mortality in % after the administration of yohimbine ([4]; Table Va, 2 mg/kg oral, 24 hours): 0%; Mortality in % after the administration of yohimbine ([4]; Table Va, 4 mg/kg oral, 4 hours): 0%; Mortality in % after the administration of yohimbine ([4]; Table Va, 4 mg/kg oral, 24 hours): 0%; Mortality in % after the administration of yohimbine ([4]; Table Va, 8 mg/kg oral, 4 hours): 10%; Mortality in % after the administration of yohimbine ([4]; Table Va, 8 mg/kg oral, 24 hours): 10%; Mortality in % after the administration of yohimbine ([4]; Table Va, 16 mg/kg oral, 4 hours): 20%; Mortality in % after the administration of yohimbine ([4]; Table Va, 16 mg/kg oral, 24 hours): 20%; Mortality in % after the administration of yohimbine ([4]; Table Va, 32 mg/kg oral, 4 hours): 25%; Mortality in % after the administration of yohimbine ([4]; Table Va, 32 mg/kg oral, 24 hours): 25%; Mortality in % after the administration of yohimbine ([4]; Table Va, 64 mg/kg oral, 4 hours): 30%; Mortality in % after the administration of yohimbine ([4]; Table Va, 64 mg/kg oral, 24 hours): 30%; Mortality in % after the administration of yohimbine ([4]; Table Va, 128 mg/kg oral, 4 hours): 60%; Mortality in % after the administration of yohimbine ([4]; Table Va, 128 mg/kg oral, 24 hours): 60%; Mortality in % after the administration of yohimbine ([4]; Table Va, 256 mg/kg oral, 4 hours): 70%; Mortality in % after the administration of yohimbine ([4]; Table Va, 256 mg/kg oral, 24 hours): 70%
